Key:
[1] = test system: IKK phosphorylation in BV-2 cells; assay: phospho-IKK quantitative Western in LPS-stimulated BV-2 cells; assay type: cell-based, murine; conditions: LPS 100 ng/ml, AE1-329 100 nM
Protocol: Nuclear and cytoplasmic fractions of BV-2 cells were prepared at several time points after treatment (0-120 minutes) using the nuclear extract kit from Active Motif (Carlsbad, Calif.). Briefly, cells were washed, collected in ice-cold PBS in the presence of phosphatase inhibitors, and centrifuged at 300×g for 5 min at 4° C. Cell pellets were resuspended in hypotonic buffer, treated with detergent, and centrifuged at 14,000×g for 30 sec at 4° C. After collection of the cytoplasmic fraction, nuclei were solubilized for 30 min in lysis buffer containing protease inhibitors. Lysates were centrifuged at 14,000×g for 30 min at 4° C. and supernatants were collected for NF-κB studies. To prepare whole cell lysates for phospho-Akt and phospho-IKK studies, cells were washed in ice-cold PBS and lysed in 20 mM Tris-HCl, pH 7.5, 150 mM NaCl, 1 mM Na2EDTA, 1 mM EGTA, 1% Triton, 2.5 mM sodium pyrophosphate, 1 mM β-glycerophosphate, 1 mM orthovanadate, 1 μg/ml leupeptin and 1 mM PMSF. […] All protein concentrations were determined using the Bradford protein assay.
Western blot analysis. […] Immunoreactivity was detected using either sheep anti-rabbit or sheep anti-mouse HRP-conjugated secondary antibody (Amersham Biosciences, Arlington Heights, Ill.), followed by enhanced chemiluminescence (Pierce). Autoradiographic signals were quantified using NIH Image. […]

[2] = test system: microglia isolated from adult mouse brain; assay: inflammatory gene expression in microglia isolated from adult brain of LPS-treated mice; assay type: in vivo; conditions: 2-3 mo C57B6 male mice, LPS 5 mg/kg i.p., AE1-329 0.3 mg/kg subcutaneously, microglia harvested at 6 hours
Protocol: qPCR was carried out as previously described (Liang et al., 2008). Briefly, total RNA was isolated using Trizol reagent (Invitrogen, Carlsbad, Calif.), treated with DNAse (Invitrogen), and the reaction was terminated by heating at 65° C. for 10 minutes. First strand cDNA synthesis was performed with 1.5 μg of total RNA, 4 units of Omniscript enzyme (Qiagen, Valencia, Calif.) and 0.25 μg of random primer in a reaction volume of 20 μl at 37° C. for 1 hour. Reverse transcribed cDNA was diluted 1:20 in RNAse free ddH2O for subsequent RT-PCR. The mRNA level for each target gene was quantified by SYBR Green-based qPCR using the QuantiTect SYBR Green PCR kit (Qiagen). Melting curve analysis confirmed the specificity of each reaction. […] Quantification was performed using the standard curve method. […]
Adult microglial cell isolation was carried according to the methods of Cardona et al., 2006, and cells were processed for RNA isolation or flow cytometry. […] Purity of the microglial preparation was determined in separate experiments by labeling ˜10^5 cells/ml with phycoerythrin (PE)-conjugated hamster anti-mouse CD11b or IgG isotype control (1:100; eBioscience, San Diego, Calif.) for 30 minutes on ice. […] Flow cytometry was performed on a LSR II (BD Biosciences), and data analyzed with FlowJo 7.2.2 software. […]

COCc1ccccc1CC[C@H](O)/C=C/[C@H]1[C@H](O)CC(=O)[C@@H]1SCCCSCC(=O)O [AE1-329]
LPS-induced phosphorylation of IKK [1]: attenuated
LPS-induced microglial COX-2, iNOS, IL-6, TNF-α and gp91phox expression [2]: significantly reduced
